Non-standard residues stand in square brackets, D forms with d. No end group written: not given here.
Assays:
[1] = Surface tension measurements (du Noüy ring), CMC determination; format: physicochemical; settings: du Noüy ring tensiometry, 10 mM Hepes buffer pH 7.4, 25 °C, metal ions 0.1 mM where present, triplicate
Procedure: For the pure surfactin in the Hepes buffer without divalent counterions, the critical micelle concentration (CMC) value was 0.045 mM. Regarding the effect of divalent cations, Ca^2+ decreased the CMC value of surfactin-C15 more than the other cations. Compared with the surfactin-C15 solution without metal ions, the CMC of Ca^2+-surfactin decreased from 0.045 mM to 0.017 mM. The addition of 0.1 mM of Cu^2+, Mg^2+ and Zn^2+ to surfactin-C15 reduced the CMCs to 0.033 mM, 0.036 mM and 0.038 mM, respectively. All the tested metal ions led to reductions of the surface tension of surfactin-C15 at the CMC (γcmc), being the highest reductions obtained with Cu^2+ and Ca^2+ (from 28.4 mN·m^−1 up to 24.5 and 25.1 mN·m^−1, respectively). The peptide ring of surfactin adopts a “horsesaddle” structure in solution, with the two charged residues forming a “claw”, which is a potential binding site for divalent cations.
Figure 3 Surface tension profiles of surfactin and metal-surfactin complexes in Hepes buffer (pH 7.4) at 25 °C. The values represent the mean of triplicates ± SD.
The surface tension (γ) measurements were performed at room temperature (25 °C) according to the du Noüy’s ring method using a KRÜSS K20 Tensiometer (KRÜSS GmbH, Hamburg, Germany). […] The surface tension data were analyzed using the Origin software provided with the equipment to obtain the CMC values.

[2] = Micelle size by dynamic light scattering (DLS); format: physicochemical; settings: 10 mM Hepes pH 7.4, 25 °C
Text: For example, it is known that the addition of metal ions decreases the CMC of surfactin. This is probably related with two important competing forces during the micellization process. Electrostatic interactions, which are responsible for the repulsion of hydrophilic groups of the lipopeptide inhibit the formation of micelles. On the other hand, hydrophobic interactions are responsible for initiation of micellization through exclusion of fatty acid chains from the aqueous environment. The presence of divalent cations additionally supports the self-assembly process. […] In the case of the Cu^2+-surfactin system, Vmic^PM6 is twice lower than in the case of the free lipopeptide. Such big differences influence the aggregation number. Generally, Nagg decreases after binding of cations. The experimental micelle volumes and hydrodynamic radii with their theoretically calculated counterparts and aggregation numbers are shown in Table 1. The experimental (RH^DLS) and theoretically calculated (RH^PM6) hydrodynamic radii of surfactin-C15 were 2.46 nm and 2.40 nm, respectively. Addition of Cu^2+, Zn^2+, Mg^2+ and Ca^2+ reduces the size of the microstructures. In this study, we observed the largest modifications of surfactin-C15 conformation due to the binding of Cu^2+; in that case RH^DLS and RH^PM6 were 1.82 nm and 1.80 nm, respectively. […]

[3] = target: bovine serum albumin (BSA) (Bos taurus, UniProt P02769); assay: Fluorescence quenching of BSA (Stern-Volmer, binding constant, Van't Hoff); settings: for kq, biomolecular quenching rate constant / KSV, Stern-Volmer quenching constant: BSA 15 µM; for kq, biomolecular quenching rate constant: from KSV with τ0 about 5 ns; for KSV, Stern-Volmer quenching constant: excitation 280 nm; for ΔG of binding to BSA: ΔG=ΔH−TΔS
Text: Fluorescence spectroscopy is a valuable tool for studying ligand-protein interactions. BSA contains two tryptophan residues, Trp134 and Trp213, which are located in sub-domain IB and sub-domain IIA, respectively. The maximum emission wavelength of BSA was found at 348 nm, and the intensity decreased regularly upon increasing the concentration of surfactin and metal-surfactin complexes. This interaction takes place adjacent to the Trp in BSA and changes the polarity around the fluorophore. This phenomenon is ascribed to the formation of surfactin/BSA and metal-surfactin/BSA complexes.
Figure 4 Fluorescence emission spectra of bovine serum albumin (BSA) with different concentrations of Cu^2+-surfactin (a), Zn^2+-surfactin (b), Mg^2+-surfactin (c), Ca^2+-surfactin (d) and surfactin (e). Conditions: BSA: 15 µM; metal-lipopeptide (a–g): 0, 10, 20, 50, 70, 100 and 120 µM; pH = 7.4; T =25 °C.
Fluorescence quenching can occur through dynamic and static mechanisms. Both dynamic and static quenching require molecular contact between the fluorophore and the quencher. The Stern–Volmer quenching (KSV) values decrease with an increase in temperature for static quenching, but the reverse effect is observed for dynamic quenching. Quenching parameters were calculated from the Stern–Volmer equation [34]:(1) F0/F=1+KSV[Q]=1+kqτ0[Q] where F0 and F are the fluorescence intensities in the absence and presence of surfactin or metal-surfactin complexes, respectively; KSV is the Stern–Volmer quenching constant; [Q] is the concentration of surfactin or metal-surfactin complexes; kq is the biomolecular quenching rate constant; and τ0 is the lifetime of the fluorophore. The fluorescence lifetime of BSA is about 5 ns. The KSV values obtained from the plot of [Q] versus F0/F (shown in Figure 5) were in the range from 6.696 × 10^3 to 7.787 × 10^3 M^−1 corresponding to the surfactin and metal-surfactin complexes.
For the static quenching interaction, the binding constant (Kb) and the number of binding sites (n) can be determined by the following equation:(2) log[(F0−F)/F]=logKb+nlog[Q] where F0 and F are the fluorescence intensities in the absence and presence of surfactin or metal-surfactin complexes, respectively, and [Q] is the concentration of surfactin or metal-surfactin complexes. Binding constants obtained from the plot of log [Q] versus log [(F0−F)/F] (Figure 6) corresponding to surfactin and metal-surfactin complexes ranged from 0.746 × 10^4 to 1.315 × 10^4 M^−1. […] Regarding the binding constants (Kb), surfactin has values higher than all the tested metal-surfactin complexes. […] The above results are similar to those reported for metal-amphisin/BSA [27].
Thermodynamic parameters for a binding interaction can be used as major evidence for the nature of intermolecular forces. There are four types of interaction forces, which could play a role in ligand binding to proteins: Van der Waals forces, hydrophobic forces, electrostatic interactions and hydrogen bonds. Thermodynamic parameters relying on temperatures were analyzed to characterize the acting force between surfactin and metal-surfactin complexes with BSA. To obtain such information, the thermodynamic parameters were calculated from the Van’t Hoff relation:(3) lnK=−ΔH^0/RT+ΔS^0/R (4) ΔG^0=ΔH^0−TΔS^0=−RTlnK where K is the binding constant, R is the gas constant and T is the experimental temperature. ΔH denotes the enthalpy change and ΔS denotes the entropy change of the binding process. The ΔH and ΔS values were calculated from the slope and intercept of the Van’t Hoff plot (Figure S2), respectively. The negative sign for ΔG means that the interaction process is spontaneous. […] This observation is supported by the docking results.
The fluorescence quenching spectra were obtained with a Varian Cary eclipse fluorescence spectrophotometer. […]

[4] = 25 °C, pH 7.4, from plot of log[(F0−F)/F] versus log[Q]
[5] = Van't Hoff plot over 25, 30, 37 °C

Sequence of bovine serum albumin (BSA) (P02769 25-607): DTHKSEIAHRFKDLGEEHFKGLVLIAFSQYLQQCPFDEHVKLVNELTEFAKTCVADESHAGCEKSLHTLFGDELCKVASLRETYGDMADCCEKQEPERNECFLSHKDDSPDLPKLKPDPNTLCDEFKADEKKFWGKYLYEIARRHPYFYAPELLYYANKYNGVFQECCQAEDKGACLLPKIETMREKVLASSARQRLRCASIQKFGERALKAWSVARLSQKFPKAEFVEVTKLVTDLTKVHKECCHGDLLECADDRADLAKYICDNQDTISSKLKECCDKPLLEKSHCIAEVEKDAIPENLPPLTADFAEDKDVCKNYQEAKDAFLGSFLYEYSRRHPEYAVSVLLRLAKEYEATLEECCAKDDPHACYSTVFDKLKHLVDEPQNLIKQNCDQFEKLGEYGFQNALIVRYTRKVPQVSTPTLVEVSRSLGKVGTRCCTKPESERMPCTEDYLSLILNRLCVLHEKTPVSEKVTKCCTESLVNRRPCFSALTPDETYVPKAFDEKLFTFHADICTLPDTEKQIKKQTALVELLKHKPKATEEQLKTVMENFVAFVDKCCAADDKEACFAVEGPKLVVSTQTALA

EL[dL]VD[dL]L (also: lariat or depsi (positions not given here)) [Surfactin, surfactin-C15, cyclic lipopeptide biosurfactant from Bacillus subtilis #309; heptapeptide closed to a lactone ring by a C15 β-hydroxyl fatty acid]
critical micelle concentration (CMC) ([1]; surfactin-C15 0.003-0.12 mM): 0.045 mM | surface tension at the CMC (γcmc) [1]: 28.4 mN·m^−1 | RH^(DLS), hydrodynamic radius of micelles ([2]; DLS, 173° backscatter, mean of 9 replicates ± SD): 2.46 ± 0.03 nm | Vmic^(DLS), micelle volume ([2]; Vmic(DLS)=4/3·π·(RH(DLS))^3, from DLS radius): 62.36 nm^3 | Kb, binding constant with BSA [3, 4]: 13150 M⁻¹ | n, number of binding sites on BSA [3, 4]: 1.07 | kq, biomolecular quenching rate constant ([3]; T 25 °C, pH 7.4): 1.339e+12 M⁻¹ s⁻¹ | KSV, Stern-Volmer quenching constant ([3]; T 25 °C, pH 7.4, quencher 0-120 µM): 6696 M⁻¹ | ΔG of binding to BSA ([3]; T 25 °C): -5.22 kcal/mol | KSV, Stern-Volmer quenching constant ([3]; T 30 °C, pH 7.4): 4926 M⁻¹ | kq, biomolecular quenching rate constant ([3]; T 30 °C, pH 7.4): 9.852e+11 M⁻¹ s⁻¹ | ΔG of binding to BSA ([3]; T 30 °C): -5.112 kcal/mol | KSV, Stern-Volmer quenching constant ([3]; T 37 °C, pH 7.4): 3147 M⁻¹ | kq, biomolecular quenching rate constant ([3]; T 37 °C, pH 7.4): 6.294e+11 M⁻¹ s⁻¹ | ΔG of binding to BSA ([3]; T 37 °C): -4.964 kcal/mol | ΔH of binding to BSA [3, 5]: -11.57 kcal/mol | ΔS of binding to BSA [3, 5]: −89.20 J·mol^−1·K^−1

— article PMC6627489, “Metal-Biosurfactant Complexes Characterization: Binding, Self-Assembly and Interaction with Bovine Serum Albumin” (International Journal of Molecular Sciences, 2019)
